This note sets out measurements from publication PMC5988692, “AZ304, a novel dual BRAF inhibitor, exerts anti-tumour effects in colorectal cancer independently of BRAF genetic status” (British Journal of Cancer, 2018).

By pEC50 is commonly meant the negative decadic logarithm of the EC50, by convention in mol/L. For orientation: GI50 means the concentration giving 50% growth inhibition. For orientation: pIC50 means −log10 of the IC50, conventionally taken in molar units.

pEC50, pIC50: −log10 of the molar value. Where two headings read alike, the source gives them in different places.

In one assay the test system is p-ERK in SK-MEL-31 cells. The experiment in a line: SK-MEL-31 p-ERK cellular assay. The format is cell-based. Conditions: Homo sapiens, 1.25 h, read-out: EC50, reduction of p-ERK.
A further assay concerns p-ERK in A375 cells. The experiment in a line: A375 p-ERK cellular assay. The format is cell-based. The settings on record: Homo sapiens, A-375, 1.25 h; A375 (V600E mutant BRAF melanoma), 75 min; read-out: mean EC50, reduction of ERK phosphorylation (p-ERK). On the procedure: A375 cells were seeded into 96-well micro plates (Costar, Corning, and Lowell, MA) at […] in phenol red free DMEM (Invitrogen, Carlsbad, CA) supplemented with 10% foetal bovine serum. After 48 h, the cells were treated with DMSO or multiple concentrations of AZ304 and then returned to the incubator for 75 min. Medium were then aspirated and cells were fixed with a 6% formaldehyde solution for 20 min at room temperature. Cells were washed once with PBS containing 0.05% Triton X-100 (PBST) and 0.6% hydrogen peroxide added for 20 min at room temperature. After washing again in PBST, cells were blocked with 10% FBS/PBST solution for 1 h at room temperature. After washing, p-ERK monoclonal antibody was added and the plates were placed at 4 °C for overnight. […] Quantification of signal was determined at OD405 using a SpectraMax plate reader (Molecular Devices, Sunnyvale, CA). […] EC50 was calculated using XLift.
Cells were incubated with DMSO or AZ304 for 75 min and p-ERK levels were determined using a p-ERK antibody based ELISA. […] Cells were incubated with DMSO or AZ304 (±EGF) for 75 min and p-ERK levels were determined using a p-ERK antibody based ELISA. […]

Assay [1] relates to panel of human cancer cell lines with different BRAF and RAS genetic statuses. The experiment in a line: Cell proliferation assay, ranges over the cell panel. Conditions: 72 h, 3 days, read-out: GI50 values, range. The format is cell-based. The procedure: The proliferation assays against a cell panel were performed as described in ref.[18] Briefly, the cells were treated with DMSO or multiple concentrations of AZ304 for 3 days. The cell growth was determined using the CellTiter 96 Aqueous One Cell Proliferation Assay (Promega, Madison, WI). […] The assays were done in triplicate across different plates.
Anti-proliferative activity of AZ304 against a panel of cell lines with different BRAF and RAS genetic status. […] Cell growth was determined by MTS assay.

The target of another assay is BRAF (Homo sapiens, UniProt P15056). The experiment in a line: AlphaScreen kinase assay (MEK1/2 phosphorylation). Conditions: wild type BRAF, ATP Km. The format is biochemical. The procedure: (§1) For RAF kinases, detailed assay information was described in ref.[18] Briefly, the kinase activity of BRAF WT, BRAF V600E, or CRAF was measured using an AlphaScreen assay (Perkin Elmer, MA) monitoring MEK1/2 phosphorylation at Ser217/221. For CDK2 and CDK4 kinases, activity was also measured by AlphaScreen, monitoring phosphorylation of biotin Rb peptide at Ser780. Similarly, MAP3K7, CSF1R and JAK2 kinase activity was measured by phosphorylation of their biotinylated substrates MKK6 kinase dead protein at Ser271/Thr275, or tyrosine phosphorylation of pEY or Tyk2 Tyr1054/1055 peptides, respectively. CSK, IGF1R, EGFR, FGFR1 and SRC kinase activity was measured using a sandwich ELISA detecting phosphorylated poly EAY peptide with a HRP conjugated phosphotyrosine antibody and TMB substrate, while p38 kinase activity was measured by monitoring phosphorylation of MBP protein with radiolabeled ^33P-ATP in a filter binding format. All assays were screened under respective ATP Km conditions and inhibitor IC50s were derived from either 5 (RAF kinases, CDK2, CDK4, MAP3K7, JAK2), 10 (CSK, IGF1R, EGFR, FGFR1, SRC) or 11 (p38, CSF1R) point compound dose response.
A general note: Bead proximity is the source of the signal in Alpha formats.

Another assay deals with BRAFV600E (Homo sapiens, UniProt P15056, V600E). The experiment in a line: AlphaScreen kinase assay (MEK1/2 phosphorylation). The format is biochemical. The settings on record: ATP Km. The procedure:
as §1

Another assay has as its target CRAF (Homo sapiens, UniProt P04049). The experiment in a line: AlphaScreen kinase assay (MEK1/2 phosphorylation). Conditions: wild type CRAF, ATP Km. The format is biochemical. The procedure: as §1
The subject of assay [2] is RKO, HT-29, DiFi and Caco-2 cells. The experiment in a line: EdU incorporation assay. The format is cell-based, human. Conditions: four CRC cell lines, 24 h. On the procedure: Selected colorectal cancer cells were seeded into 96-well plates (2000–5000 cells per well). After incubation for 24 h, the cells were pretreated with DMSO or AZ304 for 24 h. Then 50 μM of 5-ethynyl-2′-deoxyuridine (EdU, Ribobio, Guangzhou, China) was added to each well and the cells were incubated at 37 °C for 2 h before being fixed with 4% formaldehyde for 30 min and incubated with 2 mg/ml glycine for 5 min. After being washed with PBS for five times, the cells were reacted with 100 μL of 1 × Apollo reaction cocktail for 30 min. Afterwards, the 1 × Hoechst 33342 (5 μg/mL) was used to stain the nuclei.
Two V600E mutant BRAF cell lines (RKO, HT-29) and two wild-type BRAF cell lines (DiFi, Caco-2) were treated with DMSO or increasing concentrations of AZ304 (0, 0.1, 1, 10, 100 μM), for 48 h (a) and 72 h (b). Viable cells were determined by MTT assay. c EdU incorporation assay. Four cells lines from (a) were treated with DMSO or indicated AZ304 for 24 h, followed by incubation with EdU and Hoechst in sequence. […] Expression levels of phosphorylation ERK were analysed by Western blot. e BRAF mutant cell line RKO, and BRAF wild type cell line Caco-2 were treated with DMSO or 2 uM AZ304 for the indicated times. Expression levels of phosphorylation ERK were analysed by Western blot. […] Cell viability was determined by MTT assay

The next assay deals with MAP3K7 (Homo sapiens, UniProt O43318). The experiment in a line: AlphaScreen kinase assay. The format is biochemical. The settings on record: ATP Km. On the procedure:
as §1

Another assay deals with JAK2 (Homo sapiens, UniProt O60674). The experiment in a line: AlphaScreen kinase assay. The settings on record: ATP Km. The format is biochemical. On the procedure: as §1
In the next assay the target is CSF1R (Homo sapiens, UniProt P07333). The experiment in a line: AlphaScreen kinase assay. The format is biochemical. Conditions: ATP Km. The procedure:
as §1

JAK2, sequence (O60674 whole entry, species assumed): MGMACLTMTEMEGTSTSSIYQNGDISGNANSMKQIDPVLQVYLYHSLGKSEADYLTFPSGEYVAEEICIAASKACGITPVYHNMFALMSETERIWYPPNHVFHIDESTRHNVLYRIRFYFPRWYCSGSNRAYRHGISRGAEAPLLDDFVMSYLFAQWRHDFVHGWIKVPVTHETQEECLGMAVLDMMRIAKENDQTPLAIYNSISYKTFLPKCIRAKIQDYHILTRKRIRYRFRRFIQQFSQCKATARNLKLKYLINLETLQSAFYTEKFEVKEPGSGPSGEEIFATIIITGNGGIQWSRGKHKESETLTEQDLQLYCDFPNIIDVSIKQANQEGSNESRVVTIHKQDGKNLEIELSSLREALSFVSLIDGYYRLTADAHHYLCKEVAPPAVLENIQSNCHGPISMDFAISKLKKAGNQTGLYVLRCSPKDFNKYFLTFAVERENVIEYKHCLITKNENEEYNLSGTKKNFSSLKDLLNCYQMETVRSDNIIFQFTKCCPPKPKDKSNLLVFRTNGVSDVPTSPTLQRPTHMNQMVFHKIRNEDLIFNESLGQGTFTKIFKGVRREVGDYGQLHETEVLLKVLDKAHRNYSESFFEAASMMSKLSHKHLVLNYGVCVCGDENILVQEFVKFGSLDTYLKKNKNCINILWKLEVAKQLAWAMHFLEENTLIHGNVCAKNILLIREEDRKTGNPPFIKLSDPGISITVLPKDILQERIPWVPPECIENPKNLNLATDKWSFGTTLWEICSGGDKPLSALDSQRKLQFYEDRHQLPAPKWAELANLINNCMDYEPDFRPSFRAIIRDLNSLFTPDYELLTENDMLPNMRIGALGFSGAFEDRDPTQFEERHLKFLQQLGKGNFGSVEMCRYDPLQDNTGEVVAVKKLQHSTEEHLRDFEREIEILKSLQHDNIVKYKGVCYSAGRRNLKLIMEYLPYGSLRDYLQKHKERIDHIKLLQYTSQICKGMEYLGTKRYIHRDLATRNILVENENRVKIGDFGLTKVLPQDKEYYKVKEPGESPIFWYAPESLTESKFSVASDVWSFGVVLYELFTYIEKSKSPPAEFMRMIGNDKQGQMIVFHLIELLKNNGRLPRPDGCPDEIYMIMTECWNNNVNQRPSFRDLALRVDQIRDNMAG
MAP3K7, sequence (O43318 whole entry, species assumed): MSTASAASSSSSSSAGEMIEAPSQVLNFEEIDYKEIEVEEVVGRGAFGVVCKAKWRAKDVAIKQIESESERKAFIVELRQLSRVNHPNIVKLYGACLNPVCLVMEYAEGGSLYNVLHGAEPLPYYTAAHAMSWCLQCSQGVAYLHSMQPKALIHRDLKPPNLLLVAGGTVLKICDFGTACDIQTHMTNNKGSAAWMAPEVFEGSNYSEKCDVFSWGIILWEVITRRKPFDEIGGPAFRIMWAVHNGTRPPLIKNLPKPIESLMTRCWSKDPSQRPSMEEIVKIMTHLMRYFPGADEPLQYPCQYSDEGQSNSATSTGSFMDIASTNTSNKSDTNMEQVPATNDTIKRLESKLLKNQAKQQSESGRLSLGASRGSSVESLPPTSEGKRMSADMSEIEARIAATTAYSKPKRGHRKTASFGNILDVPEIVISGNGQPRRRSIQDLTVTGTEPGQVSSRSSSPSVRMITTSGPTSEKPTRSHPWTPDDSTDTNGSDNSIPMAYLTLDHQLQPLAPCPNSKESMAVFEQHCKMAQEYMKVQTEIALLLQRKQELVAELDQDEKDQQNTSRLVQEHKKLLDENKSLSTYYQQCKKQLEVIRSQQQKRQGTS
MAP3K7, sequence (Q15750 whole entry partner, species assumed): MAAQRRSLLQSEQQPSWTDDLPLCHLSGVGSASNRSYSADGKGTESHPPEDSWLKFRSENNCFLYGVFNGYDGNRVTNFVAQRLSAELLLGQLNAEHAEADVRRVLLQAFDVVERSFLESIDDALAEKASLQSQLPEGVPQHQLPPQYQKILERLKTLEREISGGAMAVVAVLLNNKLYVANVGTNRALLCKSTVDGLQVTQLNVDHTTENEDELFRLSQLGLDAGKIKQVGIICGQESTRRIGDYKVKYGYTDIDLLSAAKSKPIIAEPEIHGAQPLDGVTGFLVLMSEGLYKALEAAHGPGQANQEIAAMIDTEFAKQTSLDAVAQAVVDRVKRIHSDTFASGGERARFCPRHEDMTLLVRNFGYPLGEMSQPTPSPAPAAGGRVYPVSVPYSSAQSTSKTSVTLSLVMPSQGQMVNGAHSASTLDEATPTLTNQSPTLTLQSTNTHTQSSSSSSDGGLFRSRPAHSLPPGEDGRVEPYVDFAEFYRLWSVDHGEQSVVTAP
CRAF, sequence (P04049 349-609 limits assumed): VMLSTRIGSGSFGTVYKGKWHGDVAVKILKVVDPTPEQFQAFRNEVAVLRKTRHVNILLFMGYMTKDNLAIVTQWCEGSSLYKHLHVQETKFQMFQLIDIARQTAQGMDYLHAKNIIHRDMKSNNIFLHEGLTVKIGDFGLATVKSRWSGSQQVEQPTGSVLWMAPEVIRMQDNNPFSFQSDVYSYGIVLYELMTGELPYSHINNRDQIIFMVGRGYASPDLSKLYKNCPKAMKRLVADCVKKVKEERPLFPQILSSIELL
BRAFV600E, sequence (P15056 457-717 V600E limits assumed): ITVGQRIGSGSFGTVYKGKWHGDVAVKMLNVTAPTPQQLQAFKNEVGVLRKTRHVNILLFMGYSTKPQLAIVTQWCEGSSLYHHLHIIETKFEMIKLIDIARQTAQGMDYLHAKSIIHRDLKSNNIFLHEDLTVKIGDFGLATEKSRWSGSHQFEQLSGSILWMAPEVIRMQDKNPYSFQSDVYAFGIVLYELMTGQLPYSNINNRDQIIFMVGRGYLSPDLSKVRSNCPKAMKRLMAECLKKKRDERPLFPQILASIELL
BRAF, sequence (P15056 457-717 limits assumed): as the sequence (P15056 457-717 V600E limits assumed) above, with E144V counted along it
CSF1R, sequence (P07333 20-972, species assumed): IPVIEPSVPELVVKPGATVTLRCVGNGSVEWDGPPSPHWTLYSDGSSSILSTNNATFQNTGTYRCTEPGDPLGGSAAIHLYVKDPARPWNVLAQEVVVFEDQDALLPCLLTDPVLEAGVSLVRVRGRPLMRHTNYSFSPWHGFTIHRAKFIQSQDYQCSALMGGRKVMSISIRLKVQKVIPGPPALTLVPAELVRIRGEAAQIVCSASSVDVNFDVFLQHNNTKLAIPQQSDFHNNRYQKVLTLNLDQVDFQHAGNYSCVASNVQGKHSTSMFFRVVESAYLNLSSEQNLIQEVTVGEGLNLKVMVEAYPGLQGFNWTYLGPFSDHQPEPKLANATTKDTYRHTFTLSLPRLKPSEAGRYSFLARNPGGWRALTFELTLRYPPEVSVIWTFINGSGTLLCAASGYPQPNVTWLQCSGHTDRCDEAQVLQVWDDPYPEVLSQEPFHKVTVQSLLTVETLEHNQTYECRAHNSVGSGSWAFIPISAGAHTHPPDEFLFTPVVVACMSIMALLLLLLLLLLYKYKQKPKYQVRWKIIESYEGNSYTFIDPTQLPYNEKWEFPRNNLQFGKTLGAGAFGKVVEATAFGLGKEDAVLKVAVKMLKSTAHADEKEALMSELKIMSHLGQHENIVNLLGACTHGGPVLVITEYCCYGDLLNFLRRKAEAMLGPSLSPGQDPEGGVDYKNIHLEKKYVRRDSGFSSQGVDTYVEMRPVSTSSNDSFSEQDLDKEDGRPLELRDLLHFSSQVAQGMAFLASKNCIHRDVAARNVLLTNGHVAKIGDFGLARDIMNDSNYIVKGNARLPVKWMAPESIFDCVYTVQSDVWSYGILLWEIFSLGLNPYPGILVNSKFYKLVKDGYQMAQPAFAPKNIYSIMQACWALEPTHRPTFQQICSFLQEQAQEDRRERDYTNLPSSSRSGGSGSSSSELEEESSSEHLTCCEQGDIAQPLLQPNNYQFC

As for `COc1ccc2c(Nc3cc(NC(=O)c4cccc(C(C)(C)C#N)c4)ccc3C)ncnc2c1` [AZ304], the pEC50 in the assay with p-ERK in SK-MEL-31 cells (SK-MEL-31 (wild type BRAF melanoma), 75 min, without EGF) is 7.22; with p-ERK in SK-MEL-31 cells (SK-MEL-31, 75 min, with EGF stimulation), 7.28; with p-ERK in A375 cells it was 7.19. Also, the GI50 in [1] (mutant BRAF cell lines) lay in the range of 80 to 7720 nM; in assay [1] (mutant RAS cell lines), 900 to 16700 nM; in [1] (wild type BRAF/RAS cell lines), 430 to 11700 nM. In addition, the negative logarithm of the IC50 (pIC50) against BRAF is 7.10; at BRAFV600E, 7.42; on CRAF, 7.17; against MAP3K7, 5.19; at JAK2, less than 5.00; against CSF1R it was 7.46. Also, the “DNA replication (EdU-positive cells)” value in assay [2] was “suppressed DNA replication in CRC cells at all concentrations”.
